# According to paper PMC10570016, “Domain collapse and active site ablation generate a widespread animal mitochondrial seryl-tRNA synthetase” (Nucleic Acids Research, 2023):
# Target: T1, DmSLIMP/DmSerRS2α (Drosophila melanogaster, UniProt Q9VF85)
# T1 construct: gene SerRS-m; co-expressed in E. coli BL21(DE3) from bicistronic pOPINFS; C-terminal 6His on DmSerRS2α, C-terminal Strep II on DmSLIMP; heterodimer; HisTrap; with Seryl-tRNA synthetase-like insect mitochondrial protein
# T1 sequence (Q9VF85 22-417): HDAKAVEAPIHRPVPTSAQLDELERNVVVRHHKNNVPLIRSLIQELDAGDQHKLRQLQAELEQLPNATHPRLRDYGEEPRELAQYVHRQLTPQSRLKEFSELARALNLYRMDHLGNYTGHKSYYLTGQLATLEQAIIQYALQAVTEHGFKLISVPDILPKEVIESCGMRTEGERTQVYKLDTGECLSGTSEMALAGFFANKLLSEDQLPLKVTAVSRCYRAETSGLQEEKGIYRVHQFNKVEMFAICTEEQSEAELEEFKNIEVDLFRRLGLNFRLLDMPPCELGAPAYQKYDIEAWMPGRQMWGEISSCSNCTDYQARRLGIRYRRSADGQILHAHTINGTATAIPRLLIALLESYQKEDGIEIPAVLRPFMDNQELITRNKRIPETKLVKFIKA
# T1 sequence (Q95T19 1-464 partner): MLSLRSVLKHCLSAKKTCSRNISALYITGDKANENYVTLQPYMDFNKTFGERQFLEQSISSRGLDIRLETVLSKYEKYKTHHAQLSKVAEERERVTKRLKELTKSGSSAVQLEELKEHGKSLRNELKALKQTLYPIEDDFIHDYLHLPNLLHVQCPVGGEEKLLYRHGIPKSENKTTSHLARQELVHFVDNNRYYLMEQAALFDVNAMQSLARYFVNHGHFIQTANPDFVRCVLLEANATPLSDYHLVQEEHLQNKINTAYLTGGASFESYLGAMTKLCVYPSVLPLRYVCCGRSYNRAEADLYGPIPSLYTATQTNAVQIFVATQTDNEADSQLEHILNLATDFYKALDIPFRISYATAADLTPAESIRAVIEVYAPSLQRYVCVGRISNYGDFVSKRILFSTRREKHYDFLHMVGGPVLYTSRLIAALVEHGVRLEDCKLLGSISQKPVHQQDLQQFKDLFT
# Test: radiometric tRNA aminoacylation, scintillation counting
# Type: biochemical
# Details: co-substrates ATP and in vitro transcribed Drosophila mt-tRNA-Ser(GCU); Mg2+; labelled compound; pH 7.2, 25 °C (mutant SerRS and tRNA assays pH 7.5)
smiles,measurement,value
N[C@@H](CO)C(=O)O [serine],"radiometric tRNA aminoacylation, scintillation counting",In all cases the aminoacylation activity of DmSLIMP/DmSerRS2α was not affected by the presence of the LON domain
